{
  "source": "ChEMBL document CHEMBL1142904",
  "about": "“Modulating effects of a novel skin-lightening agent, alpha-lipoic acid derivative, on melanin production by the formation of DOPA conjugate products” (Bioorg Med Chem, 2007)",
  "molecules": {"B1": {"name": "Tyrosinase (Agaricus bisporus), O42713 (protein)", "chain": "MSLIATVGPTGGVKNRLNIVDFVKNEKFFTLYVRSLELLQAKEQHDYSSFFQLAGIHGLPFTEWAKERPSMNLYKAGYCTHGQVLFPTWHRTYLSVLEQILQGAAIEVAKKFTSNQTDWVQAAQDLRQPYWDWGFELMPPDEVIKNEEVNITNYDGKKISVKNPILRYHFHPIDPSFKPYGDFATWRTTVRNPDRNRREDIPGLIKKMRLEEGQIREKTYNMLKFNDAWERFSNHGISDDQHANSLESVHDDIHVMVGYGKIEGHMDHPFFAAFDPIFWLHHTNVDRLLSLWKAINPDVWVTSGRNRDGTMGIAPNAQINSETPLEPFYQSGDKVWTSASLADTARLGYSYPDFDKLVGGTKELIRDAIDDLIDERYGSKPSSGARNTAFDLLADFKGITKEHKEDLKMYDWTIHVAFKKFELKESFSLLFYFASDGGDYDQENCFVGSINAFRGTAPETCANCQDNENLIQEGFIHLNHYLARDLESFEPQDVHKFLKEKGLSYKLYSRGDKPLTSLSVKIEGRPLHLPPGEHRPKYDHTQARVVFDDVAVHVIN"}},
  "key": {"B16": {"tested_on": "B16", "experiment": "Inhibition of melanin synthesis in mouse B16 cells at 75 uM after 3 days", "type": "functional", "details": "B16, 72 h"}, "[1]": {"molecular_target": "T1, Tyrosinase (Agaricus bisporus) (UniProt O42713)", "T1 sequence (whole entry)": "B1 chain", "experiment": "Inhibition of mushroom tyrosinase catalyzed oxidation of L-DOPA assessed as DOPAchrome formation at 120 uM"}, "Tyrosinase": {"molecular_target": "T2, Tyrosinase (Agaricus bisporus, UniProt O42713)", "T2 sequence (O42713 whole entry)": "B1 chain", "experiment": "Inhibition of mushroom tyrosinase"}, "[2]": {"molecular_target": "T1, Tyrosinase (Agaricus bisporus)", "details": "4 uM", "description": "Inhibition of mushroom tyrosinase at 4 uM"}, "[3]": {"substrate": "N[C@@H](Cc1ccc(O)c(O)c1)C(=O)O", "experiment": "Activity of mushroom tyrosinase", "details": "Agaricus bisporus"}, "[4]": {"substrate": "O=C(CCCCC1CCS[Zn]S1)NC(Cc1c[nH]cn1)C(=O)O", "details": "Agaricus bisporus; 1.3 uM", "description": "Activity of mushroom tyrosinase at 1.3 uM"}},
  "note": "Calls of active or inactive are those of the source. The calls are words filed in the database; no cut-off is given here.",
  "data": [
    {"molecule": "OC[C@H]1O[C@H](Oc2ccc(O)cc2)[C@H](O)[C@@H](O)[C@@H]1O", "values": [
      {"measurement": "inhibition at 75 µM", "setting": "B16", "result": 38.3, "unit": "%"}
    ]},
    {"molecule": "O=C(O)CCCC[C@@H](S)CCS", "note": "[DIHYDROLIPOIC ACID]", "values": [
      {"measurement": "inhibition at 75 µM", "setting": "B16", "result": 36.3, "unit": "%"},
      {"measurement": "Activity", "setting": "[1]", "result": "Active"}
    ]},
    {"molecule": "O=C(CCCCC1CC[S][Zn][S]1)NC(Cc1c[nH]cn1)C(=O)O", "note": "(centres undefined) [SODIUM ZINC DIHYDROLIPOYLHISTIDINATE]", "values": [
      {"measurement": "inhibition at 75 µM", "setting": "B16", "result": 41.5, "unit": "%"},
      {"measurement": "Activity", "setting": "[1]", "result": "Active"},
      {"measurement": "IC50", "setting": "Tyrosinase", "result": 1300, "unit": "nM"},
      {"measurement": "inhibition", "setting": "[2]", "result": 82.9, "unit": "%"}
    ]},
    {"molecule": "B1", "values": [
      {"measurement": "Km", "setting": "[3]", "result": 860, "unit": "µM"},
      {"measurement": "Km", "setting": "[4]", "result": 4.1, "unit": "µM"}
    ]}
  ]
}
